Assay results from ChEMBL document CHEMBL5500412, “Discovery of Highly Selective, Potent, Covalent, and Orally Bioavailable Factor XIIa Inhibitors for the Treatment of Thrombo-Inflammation” (J Med Chem, 2024).
Active and inactive are the calls of the source. The calls are words filed in the database; no cut-off is given here.

Assays:
[1] = Selectivity index, ratio of IC50 for FXIa (unknown origin) to IC50 for FXIIa (unknown origin)
[2] = target: T1, Coagulation factor XII (Homo sapiens) (UniProt P00748); assay: Inhibition of FXIIa (unknown origin) using H-D-Pro-Phe-Arg-pNA as substrate preincubated for 20 mins followed by 100 fold dilution upto 120 mins then substrate addition for 60 mins by jump dilution assay; settings: time <= 200.0 min
T1 sequence (whole entry): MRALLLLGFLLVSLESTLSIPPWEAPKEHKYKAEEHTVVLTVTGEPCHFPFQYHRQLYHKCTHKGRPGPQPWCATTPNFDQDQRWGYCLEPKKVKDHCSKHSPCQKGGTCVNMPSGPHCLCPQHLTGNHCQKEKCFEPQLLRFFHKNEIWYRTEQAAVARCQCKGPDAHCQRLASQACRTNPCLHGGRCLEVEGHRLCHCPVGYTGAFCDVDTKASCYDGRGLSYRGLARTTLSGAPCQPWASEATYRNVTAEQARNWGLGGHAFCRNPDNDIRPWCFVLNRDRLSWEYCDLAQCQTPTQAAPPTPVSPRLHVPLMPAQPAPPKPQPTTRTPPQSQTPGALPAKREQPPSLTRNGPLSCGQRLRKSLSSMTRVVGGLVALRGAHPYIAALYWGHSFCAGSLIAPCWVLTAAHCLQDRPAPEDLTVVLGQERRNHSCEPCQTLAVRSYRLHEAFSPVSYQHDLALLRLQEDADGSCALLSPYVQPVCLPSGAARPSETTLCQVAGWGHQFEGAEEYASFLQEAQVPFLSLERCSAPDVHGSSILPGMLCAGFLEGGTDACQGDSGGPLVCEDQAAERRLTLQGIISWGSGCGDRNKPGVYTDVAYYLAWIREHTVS

[3] = Selectivity index, ratio of IC50 for thrombin (unknown origin) to IC50 for FXIIa (unknown origin)
Coagulation factor XII [4] = target: T2, Coagulation factor XII (Homo sapiens, UniProt P00748); assay: Inhibition of FXIIa (unknown origin) using H-D-Pro-Phe-Arg-pNA as substrate incubated for 20 mins followed by substrate addition by spectrophotometric analysis
T2 sequence (P00748 whole entry): T1 sequence (whole entry)

RAW264.7 [5] = assay: Antiinflammatory activity in mouse RAW264.7 cells assessed as inhibition of LPS-induced IL-1 beta expression at 10 uM preincubated for 12 hrs followed by LPS stimulation and measured after 12 hrs by real time quantitative RT-PCR assay; format: functional, cell-based; settings: time 24.0 hrs
[6] = target: T1, Coagulation factor XII (Homo sapiens); assay: Binding affinity to FXIIa (unknown origin) assessed as Kinact/Ki using H-D-Pro-Phe-Arg-pNA.2HCl as substrate by spectrophotometric analysis
Chymotrypsin = Chymotrypsin (Homo sapiens, UniProt Q99895+P17538+P40313+Q6GPI1); assay: Inhibition of Chymotrypsin (unknown origin) using N-Suc-Ala-Ala-Pro-Phe-pNA as chromogenic substrate incubated for 20 mins followed by substrate addition by spectrophotometric analysis; format: protein assay
Plasma [7] = assay: Anticoagulant activity in human plasma assessed as prolongation of activated partial thromboplastin time incubated for 2 mins by aPTT reagent based assay; format: functional
Plasma kallikrein = Plasma kallikrein (Homo sapiens, UniProt P03952); assay: Inhibition of PKal (unknown origin) using H-D-Pro-Phe-Arg-pNA-2HCl as substrate incubated for 20 mins followed by substrate addition by spectrophotometric analysis
[8] = Selectivity index, ratio of IC50 for trypsin (unknown origin) to IC50 for FXIIa (unknown origin)
[9] = Selectivity index, ratio of IC50 for plasmin (unknown origin) to IC50 for FXIIa (unknown origin)
[10] = Selectivity index, ratio of IC50 for FXa (unknown origin) to IC50 for FXIIa (unknown origin)
Coagulation factor XII [11] = target: T2, Coagulation factor XII; assay: Binding affinity to FXIIa (unknown origin) assessed as inhibition constant using H-D-Pro-Phe-Arg-pNA.2HCl as substrate by spectrophotometric analysis
[12] = Selectivity index, ratio of IC50 for chymotrypsin (unknown origin) to IC50 for FXIIa (unknown origin)
Plasma [13] = assay: Anticoagulant activity in human plasma assessed as prolongation of activated partial thromboplastin time at 300 uM incubated for 2 mins by aPTT reagent based assay relative to control; format: functional
Trypsin = Trypsin (Homo sapiens, UniProt P07477+P07478+P35030); assay: Inhibition of trypsin (unknown origin) using Bz-lle-Glu(gamma-OR)-Gly-Arg-pNA.HCl as chromogenic substrate incubated for 20 mins followed by substrate addition by spectrophotometric analysis; format: protein assay
Prothrombin = Prothrombin (Homo sapiens, UniProt P00734); assay: Inhibition of thrombin (unknown origin) using H-D-Phe-Pip-Arg-pNA-2HCl as substrate incubated for 20 mins followed by substrate addition by spectrophotometric analysis
RAW264.7 [14] = assay: Antiinflammatory activity in mouse RAW264.7 cells assessed as inhibition of LPS-induced IL-6 expression at 10 uM preincubated for 12 hrs followed by LPS stimulation and measured after 12 hrs by real time quantitative RT-PCR assay; format: functional, cell-based; settings: time 24.0 hrs
Coagulation factor XI = Coagulation factor XI (Homo sapiens, UniProt P03951); assay: Inhibition of FXIa (unknown origin) using p-Glu-Pro-Arg-pNA.HCl as chromogenic substrate incubated for 20 mins followed by substrate addition by spectrophotometric analysis
[15] = Selectivity index, ratio of IC50 for PKal (unknown origin) to IC50 for FXIIa (unknown origin)
Plasma [16] = assay: Anticoagulant activity in non-activated human plasma at 10 to 25 uM measured after 30 mins; format: functional, cell-free; settings: dose 10-25 µM
[17] = target: T1, Coagulation factor XII (Homo sapiens); assay: Covalent inhibition of FXIIa (unknown origin) at 20 to 40 nM measured after 10 mins; settings: dose 20-40 nM
[18] = target: T1, Coagulation factor XII (Homo sapiens); assay: Binding affinity to FXIIa (unknown origin) assessed as inactivation rate using H-D-Pro-Phe-Arg-pNA.2HCl as substrate by spectrophotometric analysis
[19] = target: Tissue-type plasminogen activator (Homo sapiens, UniProt P00750); assay: Inhibition of tPA (unknown origin) using H-D-lle-Pro-Arg-pNA-2HCl as chromogenic substrate incubated for 20 mins followed by substrate addition by spectrophotometric analysis
[20] = Selectivity index, ratio of IC50 for tPA (unknown origin) to IC50 for FXIIa (unknown origin)
Plasma [21] = assay: Anticoagulant activity in human plasma assessed as prolongation of […] time at 300 uM incubated for 2 mins by PT reagent based assay relative to control; format: functional

Coagulation factor XI, sequence (P03951 19-387 limits assumed): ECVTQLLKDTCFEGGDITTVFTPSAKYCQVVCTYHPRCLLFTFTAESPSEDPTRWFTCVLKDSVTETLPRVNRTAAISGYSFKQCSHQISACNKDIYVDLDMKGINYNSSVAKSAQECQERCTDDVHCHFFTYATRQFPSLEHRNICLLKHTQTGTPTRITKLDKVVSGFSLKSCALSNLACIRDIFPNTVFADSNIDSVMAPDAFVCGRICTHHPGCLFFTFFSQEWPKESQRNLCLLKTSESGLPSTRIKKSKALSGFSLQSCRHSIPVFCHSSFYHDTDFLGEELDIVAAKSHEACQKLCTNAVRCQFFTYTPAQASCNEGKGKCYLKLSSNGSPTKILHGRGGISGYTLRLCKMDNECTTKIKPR
Coagulation factor XI, sequence (P03951 388-625 limits assumed): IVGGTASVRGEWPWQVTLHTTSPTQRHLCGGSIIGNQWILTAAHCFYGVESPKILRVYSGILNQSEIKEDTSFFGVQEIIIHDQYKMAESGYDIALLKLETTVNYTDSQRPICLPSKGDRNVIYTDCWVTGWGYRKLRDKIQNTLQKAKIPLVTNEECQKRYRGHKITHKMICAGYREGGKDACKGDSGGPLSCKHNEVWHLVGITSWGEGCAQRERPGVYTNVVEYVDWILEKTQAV
Plasma kallikrein, sequence (P03952 20-390 limits assumed): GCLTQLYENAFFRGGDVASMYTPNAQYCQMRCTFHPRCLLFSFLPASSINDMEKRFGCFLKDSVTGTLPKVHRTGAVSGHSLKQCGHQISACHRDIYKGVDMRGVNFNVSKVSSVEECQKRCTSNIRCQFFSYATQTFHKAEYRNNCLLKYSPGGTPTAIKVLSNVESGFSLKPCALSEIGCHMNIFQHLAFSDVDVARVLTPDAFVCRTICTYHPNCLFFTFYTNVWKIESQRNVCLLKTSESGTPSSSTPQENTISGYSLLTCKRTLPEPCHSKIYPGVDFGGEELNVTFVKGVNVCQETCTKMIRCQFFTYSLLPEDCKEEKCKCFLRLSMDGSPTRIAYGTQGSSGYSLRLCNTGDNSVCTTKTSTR
Plasma kallikrein, sequence (P03952 391-638 limits assumed): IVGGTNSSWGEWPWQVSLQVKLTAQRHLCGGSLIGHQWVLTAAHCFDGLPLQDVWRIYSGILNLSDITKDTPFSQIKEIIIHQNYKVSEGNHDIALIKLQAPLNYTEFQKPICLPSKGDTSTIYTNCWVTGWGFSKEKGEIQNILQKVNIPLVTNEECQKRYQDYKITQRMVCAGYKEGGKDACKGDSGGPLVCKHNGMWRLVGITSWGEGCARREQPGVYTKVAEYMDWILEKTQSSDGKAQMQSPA
Tissue-type plasminogen activator, sequence (P00750 whole entry): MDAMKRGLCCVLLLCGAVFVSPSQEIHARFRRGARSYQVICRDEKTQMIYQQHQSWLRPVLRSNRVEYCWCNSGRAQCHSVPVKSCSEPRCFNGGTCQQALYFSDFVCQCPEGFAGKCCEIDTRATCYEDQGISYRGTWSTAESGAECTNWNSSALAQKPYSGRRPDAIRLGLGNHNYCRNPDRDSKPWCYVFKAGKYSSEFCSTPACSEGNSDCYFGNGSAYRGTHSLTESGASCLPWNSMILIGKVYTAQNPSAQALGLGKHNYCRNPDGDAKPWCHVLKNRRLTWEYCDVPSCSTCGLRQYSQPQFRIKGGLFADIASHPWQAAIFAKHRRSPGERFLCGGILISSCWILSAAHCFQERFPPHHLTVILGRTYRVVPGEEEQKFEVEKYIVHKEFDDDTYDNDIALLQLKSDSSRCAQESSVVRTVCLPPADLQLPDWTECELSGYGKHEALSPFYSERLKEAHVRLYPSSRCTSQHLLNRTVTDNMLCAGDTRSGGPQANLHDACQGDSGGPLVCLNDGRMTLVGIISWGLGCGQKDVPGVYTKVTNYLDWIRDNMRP

- Ratio IC50 [1]: > 710
- inhibition [2]: inactive
- Ratio IC50 [3]: 10
- IC50 (Coagulation factor XII [4]): 35 nM
- K [6]: 5.96 10^5/M/min
- IC50 (Chymotrypsin): > 5 µM
- IC50 (Plasma kallikrein): > 25 µM
- Ratio IC50 [8]: > 140
- Ratio IC50 [9]: > 140
- Ratio IC50 [10]: > 140
- Ki (Coagulation factor XII [11]): 43.5 nM
- Ratio IC50 [12]: > 140
- IC50 (Trypsin): > 5 µM
- IC50 (Prothrombin): 360 nM
- IC50 (Coagulation factor XI): > 25 µM
- Ratio IC50 [15]: > 710
- inhibition [17]: Active
- Kinact [18]: 0.026 min⁻¹
- IC50 [19]: > 5 µM
- Ratio IC50 [20]: > 140
Compound: Nc1nc(-c2ccccn2)nn1C(=O)c1cccc2ccccc12
- Activity (RAW264.7 [5]): Active
- EC1.5 (Plasma [7]): 145 µM
- Activity (Plasma [13]): 303%
- Activity (RAW264.7 [14]): Active
- Activity (Plasma [16]): inactive
- Activity (Plasma [21]): 17%
